Results reported in ChEMBL document CHEMBL4814025, “Exploring naltrexamine derivatives featuring azaindole moiety via nitrogen-walk approach to investigate their in vitro pharmacological profiles at the mu opioid receptor” (Bioorg Med Chem Lett, 2021).

What was measured:
[1] = target: Mu-type opioid receptor (Homo sapiens) (UniProt P35372); test: Partial agonist activity at mu opioid receptor (unknown origin) expressed in CHO cell membranes incubated for 1 hr by [35S]GTPgammaS binding assay relative to DAMGO; type: functional; settings: Membrane
Sequence of Mu-type opioid receptor (Homo sapiens) (P35372 whole entry): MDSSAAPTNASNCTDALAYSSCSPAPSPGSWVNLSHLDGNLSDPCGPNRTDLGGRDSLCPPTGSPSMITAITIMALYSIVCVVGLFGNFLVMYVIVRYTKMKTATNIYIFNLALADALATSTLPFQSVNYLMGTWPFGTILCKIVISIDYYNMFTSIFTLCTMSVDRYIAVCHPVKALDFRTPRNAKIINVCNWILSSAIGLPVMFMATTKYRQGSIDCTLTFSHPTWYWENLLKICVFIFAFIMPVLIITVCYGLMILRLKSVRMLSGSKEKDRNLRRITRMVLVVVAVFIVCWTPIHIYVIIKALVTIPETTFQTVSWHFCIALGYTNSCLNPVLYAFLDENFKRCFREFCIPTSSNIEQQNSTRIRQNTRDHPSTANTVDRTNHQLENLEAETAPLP

Mu-type opioid receptor [2] = target: T1, Mu-type opioid receptor (Mus musculus, UniProt P42866); test: Displacement of [3H]-NLX from mouse mu opioid receptor expressed in CHO cell membranes measured after 1.5 hrs by competitive radioligand binding assay; design: species or system Membrane
T1 sequence (P42866 whole entry): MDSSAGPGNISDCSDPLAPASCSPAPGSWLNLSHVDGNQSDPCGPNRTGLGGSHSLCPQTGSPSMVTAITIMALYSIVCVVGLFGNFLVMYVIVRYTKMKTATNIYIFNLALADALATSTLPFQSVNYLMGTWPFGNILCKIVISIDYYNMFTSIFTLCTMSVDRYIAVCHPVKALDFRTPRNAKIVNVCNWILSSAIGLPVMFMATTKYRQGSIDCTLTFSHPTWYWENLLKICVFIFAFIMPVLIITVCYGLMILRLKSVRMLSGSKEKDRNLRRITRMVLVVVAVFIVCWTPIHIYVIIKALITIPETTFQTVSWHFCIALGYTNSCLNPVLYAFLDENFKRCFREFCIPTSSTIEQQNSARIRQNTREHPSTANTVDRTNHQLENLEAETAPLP

Mu-type opioid receptor [3] = target: T1, Mu-type opioid receptor; test: Partial agonist activity at mouse mu opioid receptor expressed in CHO cell membranes incubated for 1.5 hrs by [35S]GTPgammaS binding based scintillation counting method; type: functional, Membrane
[4] = target: Mu-type opioid receptor (Mus musculus) (UniProt P42866); test: Partial agonist activity at mouse mu opioid receptor expressed in CHO cell membranes assessed as stimulation of [35S]GTPgammaS binding incubated for 1.5 hrs by scintillation counting method relative to DAMGO; type: functional; settings: Membrane
Sequence of Mu-type opioid receptor (Mus musculus) (P42866 whole entry): as above

Compound | Emax [1] [%] | other results
O=C(N[C@H]1C=C[C@@]2(O)[C@H]3Cc4ccc(O)c5c4[C@@]2(CCN3CC2CC2)[C@H]1O5)c1n[nH]c2ccccc12 | 12.3 | –
O=C(N[C@@H]1C=C[C@@]2(O)[C@H]3Cc4ccc(O)c5c4[C@@]2(CCN3CC2CC2)[C@H]1O5)c1c[nH]c2cccnc12 | 22.4 | –
O=C(N[C@H]1C=C[C@@]2(O)[C@H]3Cc4ccc(O)c5c4[C@@]2(CCN3CC2CC2)[C@H]1O5)c1c[nH]c2cccnc12 | 18 | –
O=C(N[C@@H]1C=C[C@@]2(O)[C@H]3Cc4ccc(O)c5c4[C@@]2(CCN3CC2CC2)[C@H]1O5)c1c[nH]c2ccncc12 | 14.9 | –
O=C(N[C@H]1C=C[C@@]2(O)[C@H]3Cc4ccc(O)c5c4[C@@]2(CCN3CC2CC2)[C@H]1O5)c1c[nH]c2cnccc12 | 21.1 | –
O=C(N[C@H]1C=C[C@@]2(O)[C@H]3Cc4ccc(O)c5c4[C@@]2(CCN3CC2CC2)[C@H]1O5)c1c[nH]c2ccccc12 | – | Ki (Mu-type opioid receptor [2]): 0.29 nM; EC50 (Mu-type opioid receptor [3]): 1 nM; Emax [4]: 33.3%
O=C(N[C@@H]1C=C[C@@]2(O)[C@H]3Cc4ccc(O)c5c4[C@@]2(CCN3CC2CC2)[C@H]1O5)c1c[nH]c2ccccc12 | – | Ki (Mu-type opioid receptor [2]): 0.19 nM; EC50 (Mu-type opioid receptor [3]): 0.22 nM; Emax ([4]; filed as partial agonist): 79.5%
O=C(N[C@@H]1C=C[C@@]2(O)[C@H]3Cc4ccc(O)c5c4[C@@]2(CCN3CC2CC2)[C@H]1O5)c1n[nH]c2ccccc12 | 39.6 | –
O=C(N[C@H]1C=C[C@@]2(O)[C@H]3Cc4ccc(O)c5c4[C@@]2(CCN3CC2CC2)[C@H]1O5)c1c[nH]c2ccncc12 | 21.7 | –
O=C(N[C@H]1C=C[C@@]2(O)[C@H]3Cc4ccc(O)c5c4[C@@]2(CCN3CC2CC2)[C@H]1O5)c1cccc2cc[nH]c12 | – | Emax [4]: 19.1%
O=C(N[C@H]1C=C[C@@]2(O)[C@H]3Cc4ccc(O)c5c4[C@@]2(CCN3CC2CC2)[C@H]1O5)c1c[nH]c2ncccc12 | 22.1 | –
O=C(N[C@@H]1C=C[C@@]2(O)[C@H]3Cc4ccc(O)c5c4[C@@]2(CCN3CC2CC2)[C@H]1O5)c1c[nH]c2ncccc12 | – | Emax ([1]; filed as partial agonist): 40.7%
O=C(N[C@@H]1C=C[C@@]2(O)[C@H]3Cc4ccc(O)c5c4[C@@]2(CCN3CC2CC2)[C@H]1O5)c1c[nH]c2cnccc12 | 26.2 | –
